In patent publication US20250188037A1, “N-(PYRROLIDIN-3-YL OR PIPERIDIN-4-YL)ACETAMIDE DERIVATIVES” (Takeda Pharmaceutical Company Limited, priority 2022, published 2025):
pIC50: −log10 of the molar value. Where two headings read alike, the source gives them in different places.

What was measured:
[1] = target: T1, SSTR1 (Homo sapiens (Human), UniProt P30872); test: biochemical;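 further: binding assay on CHO-K1 cell membranes overexpressing SSTR1, incubated 60 min at room temperature, bound fraction collected on filters and read by scintillation counting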
T1 sequence (P30872 whole entry): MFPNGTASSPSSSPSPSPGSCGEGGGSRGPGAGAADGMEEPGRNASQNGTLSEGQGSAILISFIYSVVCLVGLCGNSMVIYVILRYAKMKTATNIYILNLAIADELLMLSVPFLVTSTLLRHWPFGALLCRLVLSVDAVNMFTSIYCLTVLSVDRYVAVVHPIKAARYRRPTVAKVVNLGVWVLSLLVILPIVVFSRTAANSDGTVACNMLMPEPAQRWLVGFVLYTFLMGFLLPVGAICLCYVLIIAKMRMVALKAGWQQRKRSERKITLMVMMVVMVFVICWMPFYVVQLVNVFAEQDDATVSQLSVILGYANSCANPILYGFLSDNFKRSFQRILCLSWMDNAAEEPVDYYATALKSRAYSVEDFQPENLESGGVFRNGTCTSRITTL
Description: (§1) Membranes from CHO-K1 cells overexpressing SSTR1 are purchased from Perkin Elmer (catalog number ES-520-M400UA). […] Then 10 μg of SSTR1 membranes in 50 μL assay buffer are added per well. The plate is incubated for 60 minutes at room temperature. […] The contents of the assay plate are transferred to filters with a TomTech harvester and washed 5 times with 20 mM HEPES, 100 mM NaCl. […] The scintillator sheets are melted to the filters using a heat block. The filters are then read in a MicroBeta scintillation counter. Binding Ki curves are generated using Activity Base for Screening Data Management and the results are reported as pIC50.

[2] = target: T2, SSTR4 (Homo sapiens (Human), UniProt P31391); test: SSTR4 I-125 somatostatin competition binding assay; conditions: for IC50: membranes from CHO-K1 cells overexpressing SSTR4, read-out: SSTR4 Binding pIC50 (converted); for SSTR4 Binding pIC50: membranes from CHO-K1 cells overexpressing SSTR4
T2 sequence (P31391 whole entry): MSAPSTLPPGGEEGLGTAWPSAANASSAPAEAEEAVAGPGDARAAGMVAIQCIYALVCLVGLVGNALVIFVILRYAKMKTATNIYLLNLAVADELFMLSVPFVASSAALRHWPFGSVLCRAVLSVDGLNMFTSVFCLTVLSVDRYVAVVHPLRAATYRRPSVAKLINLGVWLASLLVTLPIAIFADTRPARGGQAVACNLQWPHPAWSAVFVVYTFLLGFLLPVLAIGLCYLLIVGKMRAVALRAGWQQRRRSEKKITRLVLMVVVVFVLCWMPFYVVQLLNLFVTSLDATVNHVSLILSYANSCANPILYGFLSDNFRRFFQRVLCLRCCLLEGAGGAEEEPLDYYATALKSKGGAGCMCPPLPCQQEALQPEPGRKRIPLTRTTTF
Description: The scintillator sheets are melted to filters using a heat block.

[3] = target: T2, SSTR4; test: Inhibition of forskolin stimulated cAMP in cells overexpressing SSTR4; type: cell-based; conditions: inhibition of forskolin stimulated cAMP in CHO-K1 cells overexpressing SSTR4; read-out: SSTR4 Activity pEC50 (converted)
Description: Inhibition of Forskolin Stimulated cAMP in Cells Overexpressing SSTR4
This cell-based assay measures the ability of compounds to inhibit forskolin stimulated cAMP in CHO-K1 cells overexpressing SSTR4. CHO-K1 cells overexpressing SSTR4 (CHO-SSTR4) are purchased from DiscoveRx (product code 95-0059C2). The CHO-SSTR4 cells are maintained in F12K media with 10% Fetal Bovine Serum (Hyclone), 1% Pen/Strep (Life Technologies), and 800 μg/mL G418 (Life Technologies). […] The next day, the culture media is removed from the cells and the cells are washed (added then removed) with Krebs Ringer Buffer (ZenBio, KRB-1000 mL). […] The cells are incubated in 10 μL compound/stimulation buffer for 30 minutes at room temperature. Cellular cAMP levels are detected with a HTRF LANCE Ultra cAMP kit (Perkin Elmer, catalog number TRF0264).
The assay is performed in accordance with the manufacturer's instructions. […] of diluted Eu—W8044 labeled streptavidin (dilution: 1:50 in cAMP Detection Buffer) is added to each well. Then 5 μL of diluted biotin cAMP (dilution: 1:150 in cAMP Detection Buffer) is added to each well. The plates are covered and allowed to incubate for 60 minutes at room temperature on a shaker. […] The pEC50 values are generated using Activity Base for Screening Data Management.

[4] = target: T1, SSTR1
Description: as §1

pIC50 [1]	IC50 [2]	EC50 [3]	pIC50 [4]	SSTR4 Binding pIC50 [2]	Compound
4.81	513 nM	70.8 nM	–	–	C[C@@H]1CN(C)CC[C@H]1NC(=O)C1(Cc2ccc(F)cc2)CC1 (racemic) [Example 10, N-(trans-1,3-dimethylpiperidin-4-yl)-1-(4-fluorobenzyl)cyclopropane-1-carboxamide]
5.27	91.2 nM	12.6 nM	–	–	Cc1cccc(CC2(C(=O)N[C@@H]3CN(C)C[C@H]3C(C)C)CC2)c1 (racemic) [Example 3, N-(trans-4-isopropyl-1-methylpyrrolidin-3-yl)-1-(3-methylbenzyl)cyclopropane-1-carboxamide]
–	–	26.3 nM	5.23	6.66	C[C@H]1CN(C)CC[C@@H]1NC(=O)C1(Cc2ccc(F)cc2)CC1 [Example 35, N-((3S,4S)-1,3-dimethylpiperidin-4-yl)-1-(4-fluorobenzyl)cyclopropane-1-carboxamide]
–	–	1.7 nM	4.35	7.14	Cc1ccccc1OC(F)(F)C(=O)N[C@H]1CCNC[C@@H]1C [Example 56, 2,2-difluoro-N-((3S,4S)-3-methylpiperidin-4-yl)-2-(o-tolyloxy)acetamide]
–	–	21.4 nM	< 4.30	6.55	C[C@H]1CNCC[C@@H]1NC(=O)C(F)(F)Oc1ccccc1F [Example 54, 2,2-difluoro-2-(2-fluorophenoxy)-N-((3S,4S)-3-methylpiperidin-4-yl)acetamide]
4.80	891 nM	57.5 nM	–	–	Cc1ccccc1CC1(C(=O)N[C@@H]2CCN(C)C[C@H]2C)CC1 (racemic) [Example 12, N-(trans-1,3-dimethylpiperidin-4-yl)-1-(2-methylbenzyl)cyclopropane-1-carboxamide]
–	–	23.4 nM	4.37	7.13	O=C(N[C@H]1CCNC[C@@H]1F)C1(Cc2ccc(Cl)cc2)CC1 [Example 23, 1-(4-chlorobenzyl)-N-((3S,4S)-3-fluoropiperidin-4-yl)cyclopropane-1-carboxamide]
–	–	14.8 nM	< 4.30	7.15	C[C@H]1CNCC[C@@H]1NC(=O)C(F)(F)Cc1ccccc1 [Example 26, 2,2-difluoro-N-((3S,4S)-3-methylpiperidin-4-yl)-3-phenylpropanamide]
–	–	47.9 nM	< 4.30	6.17	Cc1ccc(OC(F)(F)C(=O)NC2CCNCC2)cc1 [Example 34, 2,2-difluoro-N-(piperidin-4-yl)-2-(p-tolyloxy)acetamide]
–	–	5.25 nM	< 4.30	7.13	C[C@H]1CNCC[C@@H]1NC(=O)C(F)(F)Oc1cccc(F)c1 [Example 55, 2,2-difluoro-2-(3-fluorophenoxy)-N-((3S,4S)-3-methylpiperidin-4-yl)acetamide]
–	–	31.6 nM	5.08	6.55	Cc1cccc(CC2(C(=O)NC3CN(C)CC3C)CC2)c1 (stereo not drawn) [Example 6, N-(1,4-dimethylpyrrolidin-3-yl)-1-(3-methylbenzyl)cyclopropane-1-carboxamide]
–	–	11.7 nM	< 4.30	7.29	COc1cccc(CC2(C(=O)N[C@H]3CCNC[C@@H]3F)CC2)c1 [Example 46, N-((3S,4S)-3-fluoropiperidin-4-yl)-1-(3-methoxybenzyl)cyclopropane-1-carboxamide]
–	–	2.75 nM	5.06	7.45	C[C@H]1CNCC[C@@H]1NC(=O)C1(Cc2ccc(F)cc2)CC1 [Example 13, 1-(4-fluorobenzyl)-N-((3S,4S)-3-methylpiperidin-4-yl)cyclopropane-1-carboxamide]
